# Measurements published in US9198894B2, “Uses of 15-benzylidene-14-deoxy-11,12-didehydroandrographolide derivatives in the preparation of antineoplastic drugs” (Zhengzhou University, priority 2010, dated 2015).
# Like-named read-outs stand apart in the source and are kept apart here. Marks after values point to notes of the source that are not given here.
# Columns and labels:
# [1] = test system: A549 human lung adenocarcinoma; assay: Colony formation assay, A549; assay type: cell-based; conditions: for IC50: read-out: Inhibition against tumor cell colony formation IC50
# Method: (§1) 1) Cell lines: Cell lines of SGC-7901 human gastric cancer, A549 human lung adenocarcinoma and Hela human cervical carcinoma were purchased from the Type Culture Collection of the Chinese Academy of Sciences, Shanghai, China.
# (§2) 3) Method: Colony formation assay was used. The cells were trypsinized to generate a single-cell suspension and seeded in a 6-well plate at a density of 100 cells/well, then drug-containing medium was added to the well to make the final concentration of compound to 0, 1.25, 2.50, 5.00, 7.50, 10.00 μmol/L, respectively. The experiments were performed in duplicate, and the cells were cultured at 37 in a humidified atmosphere with 5% CO2. Terminate cell culture when the clones can be seen in the culture plate, then remove the culture medium, and wash twice with PBS, fix the cells with methanol (5 ml/well) for 15 min and stain the cells with hematoxylin-eosin stain. The number of clones which comprised more than 50 cells was counted under a TS100-F-PH microscope (Nikon Company, Japan). Calculate relative colony formation ratio (%) and the IC50 values. Relative colony formation ratio (%)=(colony number of drug-administration well/colony number of control well)×100%.
# [2] = test system: Hela human cervical carcinoma; assay: Colony formation assay, Hela; assay type: cell-based; conditions: for IC50: read-out: Inhibition against tumor cell colony formation IC50
# Method: as §1, §2
# [3] = test system: SGC-7901 human gastric cancer; assay: Colony formation assay, SGC-7901; assay type: cell-based; conditions: for IC50: read-out: Inhibition against tumor cell colony formation IC50
# Method: as §1, §2
# [4] = test system: 5637 human urinary bladder cancer cells; assay: Wound healing (two-dimensional migration) assay, 5637; assay type: cell-based; conditions: 5637, 10.00 μmol/l, 24 h (FIG. 1C)
# Method: (§3) 1) Cell lines: Cell lines of 5637 human bladder carcinoma, Eca-109 human esophageal carcinoma, HT29 human colon cancer, SGC-7901 human gastric cancer, A549 human lung adenocarcinoma and PC-3 human prostate carcinoma were purchased from the Type Culture Collection of the Chinese Academy of Sciences, Shanghai, China.
# (§4) 3) Methods: The cells were trypsinized to generate a single-cell suspension and seeded in 96-well plates (200 μl/well), and incubated with medium containing 10% fetal bovine serum at 37 in a humidified atmosphere with 5% CO2. Following a 24 h incubation, the cells were starved for an additional 12 h in low-serum media (1% FBS). The cultures of Eca-109, HT29, 5637, SGC-7901, A549 and PC-3 were then scratched away with a 200-μl plastic pipette tip and rinsed twice with PBS to remove wound-derived loose and dislodged cells. The cells were cultured in replaced medium without or with compounds at final concentrations of 0, 2.50, 5.00 and 10.00 μmol/L, respectively. At least seven randomly selected views along the scraped line in each well were photographed immediately and 24 h and 36 h after incubation using a digital camera at 50× magnification. The average scraped area in each well under each treatment condition was measured, and the percentage of inhibition against cell migration was calculated. % of inhibition=1−(A0−At)/(A′0−A′t)×100%, where, A0 and At are the areas of wound with compound treatment measured immediately and 24 or 36 h post-injury, respectively; A′0 and A′t are the areas of wound without compound treatment measured immediately and 24 or 36 h post-injury, respectively.
# [5] = test system: A549 human lung carcinoma cells; assay: Wound healing (two-dimensional migration) assay, A549; assay type: cell-based; conditions: A549, 10.00 μmol/l, 36 h (FIG. 1E)
# Method: as §3, §4
# Murine hepatoma H22 = assay: Anti-tumor and anti-angiogenesis effects on H22 tumor-bearing mice; assay type: in vivo, mouse; conditions: H22 mice, 1.35 mmol/kg ig once a day 7 d
# Excerpt: 1) Animals: Kunming mice of clean grade, half male and half female, body weight 20±2 g, were purchased from the experimental animal center of Henan Province, China. Qualified Certificate number: SCXK (Yu) 2005-0001.
# 2) Cells: Murine hepatoma H22 cells were presently obtained from Henan Academy of Medical and Pharmaceutical Sciences (Zhengzhou, China).
# Cyclophosphamide (Cyc) was produced by Tianjin Jingshi Pharmaceutical Co., Ltd., China (approval number of medicine: H12021006). Gelatin and carmine red were supplied by Sigma Chemical (St. Louis, Mo., U.S.A). All other chemicals and reagents were of the highest commercial grade available. All drugs were prepared with normal saline emulsified with Tween-80 (0.1% v/v) and dispersed in carboxymethylcellulose (0.5% v/v). 10% (W/V) carmine solution was prepared with salt solution containing 5% (W/V) gelatin which should be used immediately after preparation. The rest of medicines and reagents and the methods for preparation were the same with that of EXAMPLE 1.
# 4) Method: The H22 cells after in vivo passage for 7 d were diluted with physiological saline to adjust to a concentration of 1×10^7/mL, injected to the armpit of right forelimb of mice subcutaneously (0.2 ml/mouse), then mice were divided into 10 groups (n=12; 6 male and 6 female per group) randomly. 24 h later each group of mice was administrated intragastrically (ig; 0.2 ml/10 g) once a day continuously for 7 d with vehicle (tumor control group and control group), Cyc (standard control), or compounds at the tested doses. After the last drug administration and a following fasting of 8 h, each mouse was anesthetized with 1% pentobarbital in normal saline solution (80 mg/kg; ip). Mice of control group were injected with 5% gelatin in normal saline solution (40) via the tail vein (1 ml/mouse); whereas mice of other groups were injected replaced by 10% carmine red and 5% gelatin in normal saline solution (40). Mice were killed, then freezed in a refrigerator at −20 for 2 h to solidify. Tumors were segregated, weighed and homogenized with 3 M NaOH solution (10 ml/g tumor). The homogenate supernatant was prepared by being centrifuged for 20 min at 14000 rpm, and the absorbance at 490 nm was assayed using a PowerWaveX Microplate Scanning Spectrophotometer (Bio-tek Instruments, Inc). The carmine red content was calculated based on the standard curve. The vascular index (VI) expressed as milligram of carmine red per gram of tumor tissue. The inhibition ratio (IR) of tumor growth was calculated using the formula: IR (%)=[(Wc−Wt)/Wc]×100%, where Wc is the average tumor weight of the control group, and Wt is that of the drug treatment group. Data were expressed as mean±SD and statistical analysis was performed by SPSS Statistics 17.0 using a one-way analysis of variance (ANOVA) followed by unpaired t-test. A value of P<0.05 was considered statistically significant.
# S180 murine sarcoma = assay: Growth, invasion and metastasis of S180 sarcoma in tumor-bearing mice; assay type: in vivo, mouse
# Method: 1) Animals: Be the same with that of EXAMPLE 4.
# 2) Cells: The S180 murine sarcoma cells were obtained from Henan Academy of Medical and Pharmaceutical Sciences (Zhengzhou, China).
# 4) Method: Mice were randomly divided into 10 groups (n=12). The S180 cells after in vivo passage for 7 d were diluted with physiological saline to adjust to a concentration of 1×10^7/mL. The inoculation of tumor cells was conducted in two batches, those of tumor control group I and groups treated with compounds 1 or 3 were in batch 1, those of tumor control group II, Cyc group and the compound 2 groups were in batch 2. The mice were injected with S180 cells (0.2 ml/mouse) into the armpit of right forelimb subcutaneously, and 24 h later each group of mice was administrated intragastrically (ig; 0.2 ml/10 g) once a day continuously for 9 d with vehicle (tumor control group), Cyc (standard control), or compounds at the tested doses. On day 10, kill the mice, observe and record the degree of invasion and metastasis of tumor tissues, then the tumor tissues were segregated and weighed. The inhibition ratio (IR) of tumor growth was calculated by the following formula: IR (%)=[(Wc−Wt)/Wc]×100%, where Wc is the average tumor weight of the control group, and Wt is that of the treatment group. Data were expressed as mean±SD and statistical analysis was performed by SPSS Statistics 17.0 using a one-way analysis of variance (ANOVA) followed by unpaired t-test. A value of P<0.05 was considered statistically significant.
# [6] = test system: Eca-109 human esophageal carcinoma cells; assay: Wound healing (two-dimensional migration) assay, Eca-109; assay type: cell-based; conditions: Eca-109, 10.00 μmol/l, 24 h (FIG. 1A)
# Method: as §3, §4
SMILES,Inhibitory effect on two-dimensional migration [4],Inhibitory effect on two-dimensional migration [5],Inhibitory effect on two-dimensional migration [6],Inhibition of colony formation compared with andrographolide [1],IC50 [1] [nM],Inhibition of colony formation compared with andrographolide ([2]; Hela),IC50 ([2]; Hela) [nM],Inhibition of colony formation compared with andrographolide [3],IC50 [3] [nM],further results
"C=C1CC[C@@H]2[C@](C)(CO)[C@H](O)CC[C@@]2(C)[C@@H]1C/C=C1/C(=O)OC[C@H]1O [Compound 1, Andrographolide]",stronger inhibition,stronger inhibition,,,,,,,,"IC50 ([1]; Homo sapiens): 11300 nM; IC50 ([2]; Homo sapiens, HeLa): 2910 nM; IC50 ([3]; Homo sapiens): 19000 nM; IR (%) of tumor growth (Murine hepatoma H22): 31.70* %; Carmine contents (Murine hepatoma H22; mean ± s): 4.66 ± 2.58; VI (vascular index, mg carmine red per g tumor tissue) (Murine hepatoma H22; mean ± s): 5.10 ± 2.13 mg/g; IR (%) of S180 sarcoma growth (S180 murine sarcoma; 1.35 mmol/kg ig once a day 9 d): 17.18 ± 3.21 %; Average invasion and metastasis grade (S180 murine sarcoma; S180, grades 0-4, 1.35 mmol/kg): 0.67; Mouse Number Grade 0 (S180 murine sarcoma; S180 invasion, Grade 0: no invasion, 1.35 mmol/kg): 6; Mouse Number Grade 1 (S180 murine sarcoma; S180 invasion, Grade 1: invasion to right forelimb, 1.35 mmol/kg): 4; Mouse Number Grade 2 (S180 murine sarcoma; S180 invasion, Grade 2: right forelimb and the left side of body, 1.35 mmol/kg): 2; Mouse Number Grade 3 (S180 murine sarcoma; S180 invasion, Grade 3: also the ribs and muscles in chest, 1.35 mmol/kg): 0; Mouse Number Grade 4 (S180 murine sarcoma; S180 invasion, Grade 4: invasion into chest or abdominal cavity, 1.35 mmol/kg): 0"
C=C1CCC2C(C)(COC(=O)CCC(=O)O)C(OC(=O)CCC(=O)O)CCC2(C)C1C=CC1=CC(=Cc2ccc(Cl)cc2)OC1=O (stereo not drawn) [Compound 8],,much stronger than that of other tumor cells,much stronger than that of other tumor cells,,,,,,,
C=C1CCC2C(C)(CO)C(O)CCC2(C)C1C=CC1=CC(=Cc2ccc(F)cc2)OC1=O (stereo not drawn) [Compound 5],,much stronger than that of other tumor cells,much stronger than that of other tumor cells,remarkably stronger than that of andrographolide,2270,remarkably stronger than that of andrographolide,1470,remarkably stronger than that of andrographolide,2070,
C=C1CCC2C(C)(CO)C(O)CCC2(C)C1C=CC1=CC(=Cc2ccc(OC)cc2)OC1=O (stereo not drawn) [Compound 7],stronger inhibition,stronger inhibition,,remarkably stronger than that of andrographolide,3310,remarkably stronger than that of andrographolide,2400,remarkably stronger than that of andrographolide,2450,
C=C1CCC2C(C)(CO)C(O)CCC2(C)C1C=CC1=CC(=Cc2ccc(Br)cc2)OC1=O (stereo not drawn) [Compound 6],,,,remarkably stronger than that of andrographolide,1670,remarkably stronger than that of andrographolide,1980,remarkably stronger than that of andrographolide,2630,
